Where two headings read alike, the source gives them in different places.
Legend:
Human SSAO = target: T1, Human SSAO (Homo sapiens, UniProt Q16853); assay: In vitro inhibition of SSAO activity, human umbilical cord homogenate, 14C-benzylamine; format: biochemical
T1 construct: rat lung or human umbilical cord homogenates were prepared by chopping the freshly removed tissue; from tissue; host or cells: human umbilical cord homogenate (25,000 g supernatant)
T1 sequence (Q16853 1-763): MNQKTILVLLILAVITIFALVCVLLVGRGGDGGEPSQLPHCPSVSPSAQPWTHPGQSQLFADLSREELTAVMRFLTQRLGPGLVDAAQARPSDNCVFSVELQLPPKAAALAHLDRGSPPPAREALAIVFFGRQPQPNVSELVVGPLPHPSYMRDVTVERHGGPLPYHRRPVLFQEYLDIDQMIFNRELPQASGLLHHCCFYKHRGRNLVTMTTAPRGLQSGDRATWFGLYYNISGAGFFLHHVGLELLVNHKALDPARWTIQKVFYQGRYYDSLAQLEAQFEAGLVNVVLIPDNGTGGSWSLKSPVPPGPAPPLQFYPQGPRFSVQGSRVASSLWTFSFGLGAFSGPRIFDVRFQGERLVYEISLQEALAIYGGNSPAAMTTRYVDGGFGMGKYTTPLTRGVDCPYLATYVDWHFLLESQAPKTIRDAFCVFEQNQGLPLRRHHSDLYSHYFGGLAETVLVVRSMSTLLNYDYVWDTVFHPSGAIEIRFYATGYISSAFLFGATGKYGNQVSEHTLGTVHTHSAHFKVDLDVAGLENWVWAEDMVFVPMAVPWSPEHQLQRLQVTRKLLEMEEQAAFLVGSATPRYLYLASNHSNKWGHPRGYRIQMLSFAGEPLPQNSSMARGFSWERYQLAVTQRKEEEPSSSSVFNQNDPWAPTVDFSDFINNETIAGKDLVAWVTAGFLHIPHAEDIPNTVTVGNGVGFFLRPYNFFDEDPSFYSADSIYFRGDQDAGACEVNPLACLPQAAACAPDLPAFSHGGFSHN
Experimental: SSAO activity was measured as described (Lizcano J M. Et al. (1998) Biochem J. 331:69). Briefly, rat lung or human umbilical cord homogenates were prepared by chopping the freshly removed tissue into small pieces and washing them thoroughly in PBS. The tissue was then homogenized 1:10 (w/v) for lung or 1:5 (w/v) for umbilical cord, in 10 mM potassium phosphate buffer (pH 7.8). Homogenates were then centrifuged at 1000 g at 4° C. for 10 min (lung) or 25,000 g for 30 min (umbilical cord); the supernatants were kept frozen until ready to use. Lung or umbilical cord homogenate was preincubated with clorgyline and pargyline at 1 μM to inhibit MAO-A and -B activity, respectively, and SSAO inhibitors were generally present at 1 nM-10 μM. The reaction was initiated by addition of 20 μM ^14C— benzylamine as substrate. The reaction was carried out at 37° C. in a final volume of 400 μL of 100 mM potassium phosphate buffer (pH 7.2) and stopped with 100 μl of 2M citric acid. Radioactively labeled products were extracted into toluene/ethyl acetate (1:1, v/v) containing 0.6% (w/v) 2,5-diphenyloxazole (PPO) before liquid scintillation counting.

[1] = test system: carrageenan-induced paw edema; assay: Carrageenan-induced rat paw edema; format: in vivo, Sprague Dawley rats; conditions: for paw swelling: 50 mg/kg orally 60 min prior to carrageenan, between 2-6 h
Source text: Carrageenan-induced paw edema has been extensively used in the evaluation of anti-inflammatory effects of various therapeutic agents and is a useful experimental system for assessing the efficacy of compounds to alleviate acute inflammation (Whiteley P E and Dalrymple S A, 1998. Models of inflammation: carrageenan-induced paw edema in the rat, in Current Protocols in Pharmacology. Enna S J, Williams M, Ferkany J W, Kenaki T, Porsolt R E and Sullivan J P, eds., pp 5.4.1-5.4.3, John Wiley & Sons, New York). The full development of the edema is neutrophil-dependent (Salvemini D. et al. (1996) Br. J. Pharmacol. 118: 829).
Female Sprague Dawley rats were used in groups of 8-12 and compounds of the invention were administered orally at up to 50 mg/kg 60 min prior to carrageenan exposure. The control group was administered orally an equal volume of vehicle (PBS). Edema in the paws was induced as previously described by injecting 50 μL of a 0.5% solution of carrageenan (Type IV Lambda, Sigma) in saline with a 27-G needle s.c. in the right foot pad. (See Whiteley P. E. and Dalrymple S. A. (1998), Models of inflammation: carrageenan-induced paw edema in the rat, in Current Protocols in Pharmacology, Enna S J, Williams M, Ferkany J W, Kenaki T, Porsolt R E and Sullivan J P, eds., pp 5.4.1-5.4.3, John Wiley & Sons, New York) The size of the tested foot of each animal was measured volumetrically with a plethysmometer immediately after injection of carrageenan solution and at various times up to 360 min after carrageenan induction.
Results of experiments with the compounds II-1-E, I-1-Z, and I-2-Z are shown in FIG. 1, FIG. 5, and FIG. 6, respectively.
Using the same procedure discussed above, the size of the foot of each animal was measured volumetrically before induction of edema, and at 1.5, 3, 4.5 and 6 h after the carrageenan injection. The absolute decreases in paw swelling at 6 h with 1, 10 and 50 mg/kg were 5±11%, 20±9% and 32±6% respectively. Statistical analyses were performed with repeated measures ANOVA followed by Dunnett's test for multiple comparisons.
Paw edema was induced in groups of eight Sprague Dawley rats by injecting 50 μL of a 0.375% solution of carrageenan X in saline, subcutaneously in the foot. After one hour animals were orally dosed once with PBS, compound I-1-Z at 50 mg/kg or with indomethacin at 3 mg/kg. The size of the paws were measured before induction of edema (baseline), and at 1.5, 3, 4.5 and 6 h after carrageenan injection. […] Statistical analyses were performed with repeated measures ANOVA followed by Dunnett's test for multiple comparisons.
Groups of eight Sprague Dawley rats were orally administered PBS, or 0.01, 0.1 or 1 mg/kg of compound I-1-Z. One hour later paw edema was induced in all animals by injecting 50 μL of a 0.5% solution of carrageenan X in saline, subcutaneously into the footpad. The size of the foot of each animal was measured volumetrically before induction of edema, and at 1.5, 3, 4.5 and 6 h after the carrageenan injection. The absolute decreases in paw swelling at 6 h with 0.1 and 1 mg/kg were 34±8 and 29±8% respectively. Statistical analyses were performed with repeated measures ANOVA followed by Dunnett's test for multiple comparisons.

| Structure (SMILES) | IC50 (Human SSAO; as restated in Example 46, read-out: IC50 for human SSAO) | absolute decrease in paw swelling at 6 h ([1]; 0.1 mg/kg orally one hour before carrageenan, low doses, FIG. 13) | absolute decrease in paw swelling at 6 h ([1]; 1 mg/kg orally one hour before carrageenan, low doses, FIG. 13) | absolute decrease in paw swelling at 6 h ([1]; 1 mg/kg, dose response, FIG. 7) | absolute decrease in paw swelling at 6 h ([1]; 10 mg/kg, dose response, FIG. 7) | paw swelling [1] | absolute decrease in paw swelling at 6 h ([1]; 50 mg/kg, dose response, FIG. 7) | inhibition of paw edema at 6 h ([1]; therapeutic dosing: 50 mg/kg orally one hour after 0.375% carrageenan, FIG. 8) | IC50 (Human SSAO; human umbilical cord homogenate, read-out: Human SSAO IC50) |
| --- | --- | --- | --- | --- | --- | --- | --- | --- | --- |
| COc1ccc(C/C(=C/F)CN)cc1.Cl [Compound I-1-Z, (Z)-3-Fluoro-2-(4-methoxybenzyl)-allylamine hydrochloride] | 18 nM | 34±8% | 29±8% | 5±11% | 20±9% | clearly reduced the paw swelling | 32±6% | 50±4% | – |
| NC/C(F)=C\Cc1cc(F)cc(C(F)(F)F)c1 [II-1-E, (E)-2-Fluoro-4-(3-fluoro-5-trifluoromethylphenyl)-but-2-enylamine] | – | – | – | – | – | clearly reduced the paw swelling | – | – | 36 nM |

Source: US20110269811A1, “INHIBITORS OF SEMICARBAZIDE-SENSITIVE AMINE OXIDASE (SSAO) AND VAP-1 MEDIATED ADHESION USEFUL FOR TREATMENT AND PREVENTION OF DISEASES” (priority 2006, published 2011)
